Reference: US11826355B1, “Aspirin-mimetic antioxidants for treatment of age-related cataract” (priority 2022, dated 2023)
Where “and” joins values, the source holds several entries; their conditions need not be identical. Equal entries are not always repeated.

Legend:
lung cancer = conditions: 1994 ATBC RCT; cited from earlier work
[1] = system: acute ischemia stroke (AIS) and/or ALS; conditions: approved for acute ischemia stroke (AIS) and/or ALS; cited from earlier work
[2] = system: Wistar rat cataract model induced by sodium selenite; test: Lens opacity score (slit lamp) in sodium selenite-induced cataract rat model; type: in vivo; design: lens opacity score, Mean / lens opacity score / lens opacity score, raw data per eye (OD/OS, rats 1-6): scale not given here; conditions: G1, 0.8 mg/15 mL, 10 μl 3 times/day
Protocol: A new batch of eye drops solutions was prepared every week. Placebo was a solution that contained the same excipients but without the drug compound. The eye drops solutions were prepared as follows:
3. An illustrative procedure: To a 250 mL volume flask were added 25 mg each of the excipients, sodium borate, boric acid, sodium chloride, and potassium chloride, an aspirin mimetic drug compound to be tested (e.g., DPL-004, 9.0 mg), and about 200 ml of sterilized water to form a mixture. The resultant mixture was shaken well to dissolve solids; and more sterilized water was added to bring the volume of solution to 250 mL, which was shaken well and then distributed into small portions. Each portion was labeled with a concentration of 3.6 mg/100 mL and the preparation date and was stored in a refrigerator for future use.
4. Eye drops solutions comprising DPL-004 at a concentration of 36 mg/100 mL and 12 mg/100 mL were prepared similarly according to the above procedure by using 90 mg and 30 mg of DPL-004, respectively, while maintaining the same amounts of excipients as shown above.
(§1) At the age of 11-12 days after birth, all suckling rats underwent a single intraperitoneal injection of sodium selenite (30 μmol/kg, i.e., 0.1 ml/10 g) for model-building. Sodium selenite solution was configured with normal saline at a concentration of 3 mM.
(§2) At the age of 19 days after birth (D-1) of the suckling rats, 30 lens opacities were selected for a cloudy rating at Class 4 or 5; Wister suckling rats were randomly divided into 5 groups (G1-G5 groups, 6 in each group); and a cage of suckling rats as G6 was randomly selected after the animals opened their eyes (14-16 days of age).
(§3) The subject suckling rats of groups G1 to G5 were treated at the age of 20 days after birth (D1), and the specific dosing information is shown in Table 1. Treatment in the G6 group was conducted after the animals opened their eyes (14-16 days old, D-6-D-4), and the specific dosing information is shown in Table 1.
At D-1, in the fourth week of treatment, the slit lamp was used at the end of administration to observe the turbidity of the lens and grade it, and the grading and scoring criteria are shown in the following Table 2.

[3] = Body weight of rats in the cataract model study; type: in vivo, rat; conditions: G1, 0.8 mg/15 mL, 10 μl 3 times/day
Protocol: as §1, §2, §3

[4] = General clinical observations during 60-day eye drop administration; type: in vivo, rat; conditions: eye drops 3 times/day, 60-day administration phase, all concentrations
Text: as §2

prostate cancer = conditions: 2008 SELECT RCT; cited from earlier work
[5] = pH about 6.4, day -1 (before administration)

CC1=C(/C=C/C(C)=C/C=C/C(C)=C/C=C/C=C(C)/C=C/C=C(C)/C=C/C2=C(C)CCCC2(C)C)C(C)(C)CCC1 [Beta-carotene only, Beta-carotene]
Adverse Effects: more lung cancer (lung cancer): 18% more lung

CC1=NN(c2ccccc2)C(=O)C1 [Edaravone]
efficacy (marginal) [1]: 5%

O=C(O)c1cc(O)c2c3nc4ccccc4oc-3cc(=O)c2n1 [Pirenoxine, reference compound]
lens opacity score, Mean ([2]; pH about 6.4, day 28): 3.42 | lens opacity score, raw data per eye (OD/OS, rats 1-6) ([2]; pH about 6.4, day 28): 3 and 4 | lens opacity score, Mean ([2]; pH about 6.4, day 60): 2.92 | lens opacity score, raw data per eye (OD/OS, rats 1-6) ([2]; pH about 6.4, day 60): 2 and 4 and 3 | lens opacity score, Mean [2, 5]: 4.00 | lens opacity score, raw data per eye (OD/OS, rats 1-6) [2, 5]: 4 | Body Weight, Mean ([3]; pH about 6.4, day 4): 57.07 g | Body Weight, Mean ([3]; pH about 6.4, day 11): 96.02 g | Body Weight, Mean ([3]; pH about 6.4, day 18): 133.87 g | Body Weight, Mean ([3]; pH about 6.4, day 25): 163.00 g | Body Weight, Mean ([3]; pH about 6.4, day 32): 197.18 g | Body Weight, Mean ([3]; pH about 6.4, day 39): 219.45 g | Body Weight, Mean ([3]; pH about 6.4, day 46): 239.75 g | Body Weight, Mean ([3]; pH about 6.4, day 53): 255.82 g | Body Weight, Mean ([3]; pH about 6.4, day 60): 270.00 g | Body Weight, Mean [3, 5]: 43.48 g | abnormal symptoms (activity status, body weight, skin hair, secretion morphology and color) [4]: no abnormal symptoms

Cc1c(C)c2c(c(C)c1O)CC[C@@](C)(CCC[C@H](C)CCC[C@H](C)CCCC(C)C)O2 [Vitamin E]
Adverse Effects: more prostate cancer (prostate cancer): 17% more prostate
